The conditions of this series: various environmental conditions and during production of a medicament.

Results on one compound are retold here after patent US11433045B2, “Treatment of metabolic disorders in canine animals” (Boehringer Ingelheim Vetmedica GmbH, priority 2014, dated 2022).

Regarding `N#Cc1ccc([C@@H]2O[C@H](CO)[C@@H](O)[C@H](O)[C@H]2O)cc1Cc1ccc(C2CC2)cc1.O=C(O)[C@@H]1CCCN1`, the “physical and chemical stability” value is “high physical and chemical stability”.
